Experimental data reported in patent US7705016B2, “Regulation of food intake by modulation of long-chain fatty acyl-CoA levels in the hypothalamus” (Albert Einstein College of Medicine of Yeshiva University, priority 2003, dated 2010).

Assays:
hypothalamic CPT1 [1] = molecular target: T1, hypothalamic CPT1 (Rattus norvegicus, UniProt P32198); experiment: ICV CPTi with or without glybenclamide or liver-selective vagotomy, pancreatic/insulin clamp (Example 4); type: in vivo; design: from tissue; host or cells: hypothalamus of living S-D rats; details: ICV GLY in CON-infused rats (CON-GLY); not shown
T1 sequence (P32198 1-773): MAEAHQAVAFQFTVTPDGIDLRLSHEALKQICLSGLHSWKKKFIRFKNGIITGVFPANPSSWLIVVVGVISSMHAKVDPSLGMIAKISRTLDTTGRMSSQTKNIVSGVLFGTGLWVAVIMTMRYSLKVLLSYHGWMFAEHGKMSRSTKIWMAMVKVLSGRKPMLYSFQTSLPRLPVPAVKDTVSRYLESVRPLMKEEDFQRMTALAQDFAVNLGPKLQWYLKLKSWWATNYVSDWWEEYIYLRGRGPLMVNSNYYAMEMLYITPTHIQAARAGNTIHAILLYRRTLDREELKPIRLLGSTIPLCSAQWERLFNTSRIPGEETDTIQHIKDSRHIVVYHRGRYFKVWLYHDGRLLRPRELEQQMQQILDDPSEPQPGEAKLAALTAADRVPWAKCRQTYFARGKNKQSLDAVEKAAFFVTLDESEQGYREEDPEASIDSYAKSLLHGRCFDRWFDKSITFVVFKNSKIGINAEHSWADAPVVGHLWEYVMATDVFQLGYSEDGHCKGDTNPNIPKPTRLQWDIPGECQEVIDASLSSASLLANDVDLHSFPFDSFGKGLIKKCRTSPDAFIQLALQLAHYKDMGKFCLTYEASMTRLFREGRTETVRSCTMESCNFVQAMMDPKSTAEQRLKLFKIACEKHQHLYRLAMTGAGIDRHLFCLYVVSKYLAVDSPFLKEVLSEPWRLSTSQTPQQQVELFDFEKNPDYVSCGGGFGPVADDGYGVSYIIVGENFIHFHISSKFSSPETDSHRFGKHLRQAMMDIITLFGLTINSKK
Source text: Decreasing Hypothalamic Lipid Oxidation Inhibits Endogenous Glucose Production (GP) via stimulation of K-channels (KATP) and Vagus Nerve. Administration either of the long-chain fatty acid (LCFA) oleic acid (OA) or of inhibitors of CPT-1 activity (CPT1) in the third cerebral ventricle (ICV) inhibits GP. Here, we hypothesize that inhibition of hypothalamic lipid oxidation with CPTi decreases GP via central activation of ATP-dependent potassium channels (KATP) leading to increased vagal input to the liver. […] All rats also received an IV infusion of [3-^3H]-glucose for the last 4 hr of ICV infusion and pancreatic/insulin clamp (insulin 1 mU/kg/min; somatostatin […]) during the last 2 hr of each study. In the presence of basal insulin levels, glucose infusion (GIR) was required to prevent hypoglycemia in the CPTi (4.9±1.0 mg/kg/min), but not in the CON (2.1±0.4 mg/kg/min) and CPTi-GLY (1.4±0.5 mg/kg/min) groups. […] To investigate whether this neural pathway acts via the hepatic branch of the vagus nerve, ICV CPTi or CON infusions were also performed in rats receiving liver-selective vagotomy (LV) or sham-operation (SH). GIR was markedly higher in CPTi-SH (4.7±1.3 mg/kg/min) compared with both CON-SH (1.3±0.4 mg/kg/min) and CPTi-LV (0.8±0.5 mg/kg/min). […]

KATP = experiment: IV lipid infusion with ICV glybenclamide or hepatic vagotomy, pancreatic clamp (Example 4); type: in vivo, rat; details: near basal insulin (~27 μU/ml), groups S+ICVG, IL+ICVC
Experimental: Hepatic “Autoregulation” in Response to Lipid Infusion Requires Central Stimulation of K-channels (KATP) and Liver Vagal Innervation. […] Since the administration of the LCFA oleic acid in the third cerebral ventricle (ICV) inhibits GP via stimulation of KATP, here we test the hypotheses that: 1) the central activation of KATP by LCFAs restrains GP during lipid infusions, and 2) that this effect requires hepatic vagal input. To this end, 5 h fasted S-D rats were randomized to receive: IV Intralipid+heparin (IL) (increased LCFA levels by ˜3 fold) or saline (S) in combination with ICV Glybenclamide (G) [inhibitor of KATP] or vehicle (C) for 6 h. All rats also received IV infusions of [3-^3H]-glucose for the last 4 h and [U-^14C]-lactate for the last 10 min of the ICV infusion and a pancreatic clamp during the last 2 h of each study. During the clamp period, in the presence of near basal insulin levels (˜27 μU/ml), GP (˜6 mg/kg.min) was unchanged in S+ICVC, S+ICVG or IL+ICVC. […] To examine whether the central effects of LCFA on GP are mediated by vagal stimulation, we next repeated the lipid infusion studies in rats with selective hepatic vagotomy (HV). During the pancreatic clamp period, GP (˜6 mg/kg/min) was similar in S-treated HV and S or IL treated sham-operated rats. Importantly, IL increased GP to 9.7±0.5 (P<0.001) in HV, recapitulating the effect ICVG. […]

hypothalamic CPT1 [2] = molecular target: T1, hypothalamic CPT1; experiment: ICV infusion with pancreatic-insulin clamp, glucose kinetics (Example 1); type: in vivo; design: CPT1 activity was measured in the particulate fraction of protein extracts from animals treated with ICV control injections; from tissue; host or cells: hypothalamus (arcuate nucleus) of male Sprague-Dawley rats, in vivo or ex vivo; Insulin (iU/ml): unit not given here; details: for Food Intake: measured prior to acute ICV infusion, except CPT1L-Ribo group (3 days after ICV)
Experimental: Hypothalamic inhibition of CPT1 inhibits glucose production. Experiments were also designed to examine the effect of central inhibition of CPT-1 on whole body insulin action (FIG. 4a,b). Insulin action was assessed by a combination of ICV infusions with systemic pancreatic-insulin clamp studies (FIG. 4b). In these studies, the daily food intake was matched in the rats receiving ICV vector and ICV CPT1L-Ribo (Table 1). All rats also received an intra-arterial infusion of [3-^3H]-glucose for the last 4 hr of ICV infusion and a pancreatic/insulin clamp (insulin 1 mU/kg.min; somatostatin 3 μg/kg/min) during the last 2 hr of the study (Obici et al., 2002a; Obici et al., 2001). As expected in the presence of ˜basal circulating insulin levels (clamp procedure; Table 1), the rate of glucose infusion (GIR) required to maintain euglycemia was marginal in ICV control studies (vector-ST1340- or vehicle-infused animals; ˜0.8 mg/kg/min). By contrast, following ICV infusion of inhibitors of CPT-1 expression or activity glucose had to be infused at the rate of ˜5 mg/kg/min in order to prevent hypoglycemia. Thus, central inhibition of CPT-1 activity in the presence of fixed and basal insulin concentrations stimulates insulin action on glucose homeostasis.
(§1) Animal preparation for in vivo experiments. We studied ninety-three 10-week old male Sprague-Dawley rats (Charles River Breeding Laboratories, Wilmington, Mass.). Rats were housed in individual cages and subjected to a standard light-dark cycle. Three weeks prior to the in vivo studies, we placed a chronic catheter in the third cerebral ventricle by stereotaxic surgery (Obici et al., 2002a; Obici et al., 2001; Liu et al., 1998). One week before the pancreatic-insulin clamp protocols, we placed additional catheters in the right internal jugular and left carotid artery (Obici et al., 2001; Liu et al., 1998). All ICV solutions were dissolved in artificial cerebral spinal fluid (aCSF). Food intake was monitored daily.
Measurements of in vivo glucose kinetics and pancreatic-insulin clamp procedure. The infusion studies lasted a total of 360 min (FIG. 3a). Briefly, at t=0 min a primed-continuous ICV infusion of either CPT1 inhibitors or control solution was initiated and maintained for the remainder of the study. 2-tetradecylglydate (TDGA, a gift from Dr. Manuel Guzman) was dissolved in DMSO, diluted into aCSF (Harvard Apparatus) and infused ICV at a rate of 50 pmoles/hr. […] Prior to the pancreatic-insulin clamp studies, rats receiving ICV injection of either CPT1L-Ribo or vector control three days prior to the clamp procedure were randomized into two pair-fed experimental groups. A primed-continuous infusion of HPLC-purified [3-^3H]-glucose (New England Nuclear, Boston, Mass.; 40 μCi bolus, 0.4 μCi/min) was started at t=120 min and continued for the duration of the study (Obici et al., 2002a; Obici et al., 2001; Liu et al., 1998). Finally, a pancreatic-insulin clamp (Obici et al., 2002a; Obici et al., 2001; Liu et al., 1998) was initiated at t=240 min and lasted for 2 hours. This procedure involved the infusion of somatostatin (3 μg/kg/min), insulin (1 mU/kg/min), and glucose as needed to prevent hypoglycemia, or antibodies against C peptide (Linco) and Melanocortin Receptor type 2 (Chemicon). The rate of insulin infusion was designed to replace normal basal levels in postabsorptive rats.
Radioactivity of [^3H]glucose in plasma was measured from supernatants of Ba(OH)2 and ZnSO4 precipitates after evaporation to dryness for the removal of tritiated water (Somogyi pellet). The specific activity of tritiated water in plasma (Somogyi filtrate) was determined from the total counts of the protein-free supernatant before and after evaporation to dryness. Under steady state conditions for plasma glucose concentration, the rate of glucose disappearance (Rd) equals the rate of glucose appearance (Ra). […]

hypothalamic CPT1 [3] = molecular target: T1, hypothalamic CPT1; experiment: Food intake after ICV bolus of CPT1 antagonists; type: in vivo; design: CPT1 activity was measured in the particulate fraction of protein extracts from animals treated with ICV control injections; from tissue; host or cells: hypothalamus (arcuate nucleus) of male Sprague-Dawley rats, in vivo or ex vivo; details: single ICV injection
Experimental: Hypothalamic inhibition of CPT1 decreases food intake. First we examined whether central administration of molecular and pharmacological antagonists of CPT1 modulates feeding behavior in conscious rats (FIG. 3). […] Food intake was monitored in metabolic cages before and up to 72 h after the ICV injections (Obici et al., 2002a). […] The marked effect of ICV CPT1L-Ribo on food intake was significant when compared with either control vector or with an unrelated control ribozyme (FIG. 3c). […] The anorectic effect of central CPT1 inhibition lasted for at least 48 h following a single ICV administration. These decreases in food intake were significant compared with both baseline and vehicle/control (FIG. 3a-e). The changes from baseline induced by CPT1 inhibition were statistically significant at 24 h (−17.6±2.0 g and −12.4±3.9 g), and 48 h (−13.4±1.8 g and −7.8±3.8 g) following ICV administration of CP1L-Ribo and high dose ST 1326, respectively (FIGS. 3b and e). This represented a ˜50% decrease in daily food intake, which returned toward baseline values by 72 h.
as §1
Effect of central inhibition of CPT1 and food intake. We examined the effects of ICV CPT1L-Ribo and ST 1326 on food intake. Three-hours before the start of the dark cycle, CPT1L-Ribo or vector control, ST 1326 or ST 1340 was injected as a bolus via indwelling catheters implanted in the third cerebral ventricle. In the feeding studies, rats received a single bolus injection of 25 pmoles of ST1340 or two different doses (5 and 25 pmoles) of ST1326. Rats were adapted to the metabolic cages and their daily food intake had been constant (changes <10%) for a minimum of three consecutive days preceding the ICV injections. Food intake was continuously monitored for the following 72 h.

rats = details: ICV, equimolar to oleic acid; cited from earlier work

## COc1ccc(Cl)cc1C(=O)NCCc1ccc(S(=O)(=O)NC(=O)NC2CCCCC2)cc1 [GLY, glybenclamide]
Hypothalamic CPT1 [1]
  GP: did not alter
KATP
  GP during the clamp period: ~6 mg/kg.min

## CCCCCCCCCCCCCCNC(=O)N[C@@H](CC(=O)[O-])C[N+](C)(C)C [ST1340, (S)-N-(tetradecylcarbamoyl)-aminocarnitine]
Hypothalamic CPT1 [2]; Basal
  Body wt.: 307 ± 6 g
  FFA: 0.4 ± 0.1 mM
  Glucose: 8.0 ± 1.0 mM
  Insulin: 1.4 ± 0.2 ng/mL
  Leptin: 0.9 ± 0.2 ng/mL
  Food Intake: 22 ± 3 g
Hypothalamic CPT1 [2]; Clamp, steady-state
  FFA: 0.4 ± 0.1 mM
  Glucose: 8.2 ± 0.9 mM
  Insulin (iU/ml): 25 ± 4
Hypothalamic CPT1 [2]; pancreatic-insulin clamp, ~basal insulin, ICV infusion
  rate of glucose infusion (GIR) required to maintain euglycemia: ~0.8 mg/kg/min
Hypothalamic CPT1 [3]
  effect on food intake / feeding behavior: failed to modify feeding behavior

## CCCCCCCCCCCCCCC1(C(=O)O)CO1 (stereo not shown) [TDGA, 2-tetradecylglydate]
Hypothalamic CPT1 [2]; Basal
  Body wt.: 319 ± 10 g
  FFA: 0.5 ± 0.1 mM
  Glucose: 8.2 ± 0.8 mM
  Insulin: 1.9 ± 0.1 ng/mL
  Leptin: 1.7 ± 0.1 ng/mL
  Food Intake: 25 ± 2 g
Hypothalamic CPT1 [2]; Clamp, steady-state
  FFA: 0.5 ± 0.1 mM
  Glucose: 8.1 ± 0.5 mM
  Insulin (iU/ml): 25 ± 3
Hypothalamic CPT1 [2]; basal and equal insulin levels (~20 μU/ml), ICV
  decrease in glucose production (GP): 47±6%
Hypothalamic CPT1 [2]; ~basal insulin concentrations, p<0.01
  glucose production (GP) during pancreatic clamp vs ICV vehicle controls: markedly inhibited GP

## CCCCCCCC(=O)O [octanoic acid]
rats
  suppressive effects of ICV oleic acid on food intake and on GP, with equimolar administration: not replicated
